Columns and labels:
orthotopic PDAC mice = assay: Antitumor efficacy of different treatments; assay type: in vivo
Description: To evaluate the antitumor efficacy of different treatments, the orthotopic PDAC mice are randomly assigned to the following groups: untreated control group (hereinafter referred to as “Control”), orally administered β-glucan group (hereinafter referred to as “βGlus”), intravenous injected DOX group (hereinafter referred to as “DOX”), orally administered Comparative Example group (hereinafter referred to as “Comparative Example”), and orally administered Example 1 group (hereinafter referred to as “Example 1”). In the groups of DOX, Comparative Example and Example 1, the DOX content of each dose is 10 mg/kg, while in the groups of βGlus and Example 1, the content of β-glucan of each dose is 40 mg/kg. The body weight changes of the orthotopic PDAC mice are recorded every other day. On day 21, the orthotopic PDAC mice are euthanized and their tumors are retrieved for analysis.

RAW264.7 cells [1] = assay: Cytotoxicity on Mφ; assay type: cell-based, murine; conditions: different DOX concentrations, 24 hours
Procedure: The capacity of Mφ as a hitchhiking vehicle is strongly correlated with their viability following the uptake of drug-encapsulated particles. Therefore, the cytotoxicity of Example 1 on Mφ are further evaluated. The RAW264.7 cells are incubated with Comparative Example or Example 1 including different DOX concentrations for 24 hours, and the RAW264.7 cells treated with the same concentration of free DOX are used as Control (represents as “DOX”).

RAW264.7 cells [2] = assay: Cellular uptake and trafficking by Mφ in vitro (CLSM); assay type: cell-based, murine; conditions: 10 μg/mL DOX
Procedure: To investigate whether the oral pharmaceutical composition of the present disclosure can be phagocytosed and carried by Mφ, the cellular uptake and trafficking of free DOX, Comparative Example or Example 1 by Mφ in vitro are observed first. RAW264.7 cells, a murine Mφ cell line, are seeded in an eight-well chamber slide (ibidi) at a density of 5×10^4 cells per well and incubated overnight. The cells are then treated with each of the test samples at an equivalent dose of DOX (10 μg/mL). Following incubation for pre-determined periods (0, 2, 4, and 6 hours), test cells are washed with Dulbecco's phosphate-buffered saline (DPBS) and stained with LysoTracker™ Deep Red (Invitrogen) and Hoechst 33342 (Abcam) for 30 minutes in the incubator. The stained cells are then examined using confocal laser scanning microscopy (CLSM) (LSM 780, Carl Zeiss) to track the localization and accumulation of free DOX, the DOX fluorescent signal of Comparative Example or Example 1, and to determine the cell regulation process of free DOX, Comparative example and Example 1 in the RAW264.7 cells.

## COc1cccc2c1C(=O)c1c(O)c3c(c(O)c1C2=O)C[C@@](O)(C(=O)CO)C[C@@H]3O[C@H]1C[C@H](N)[C@H](O)[C@H](C)O1 [DOX, doxorubicin]
Orthotopic PDAC mice; day 21, three doses, DOX 10 mg/kg, β-glucan 40 mg/kg per dose, compared with Control
  tumor volume: substantially reduces tumor volumes
Orthotopic PDAC mice; intravenous DOX 10 mg/kg per dose, P<0.05
  body weight: serious loss of body weight
RAW264.7 cells [1]
  cell viability: decreases substantially in a dose-dependent manner
RAW264.7 cells [2]
  accumulation of DOX fluorescence in the cell nuclei: accumulated in their nuclei

— patent publication US20240197911A1, “Oral Pharmaceutical Composition, Method for Fabricating Thereof, and Kit for Treating Cancer” (National Tsing Hua University, priority 2022, published 2024)
